Molecular target: T1, MC4R (Homo sapiens, UniProt P32245)
T1 construct: expressed in transfected cells; host or cells: HEK (Human Embryonic Kidney) permanent expression cell line HEK MC4R-Luc, co-expressing CRE-luciferase
Assay: MCR agonistic activity (luciferase assay / cAMP accumulation assay) on MC4R
Type: cell-based
Details: HEK cell lines expressing MC4R; method A (CRE-luciferase) or B (cAMP accumulation), not said which; read-out: EC50 value, agonistic activity to MC4R (range per group of Examples)
In short: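 HEK cells stably expressing MC4R with a CRE-luciferase reporter treated 5 hours at 37 °C with serially diluted agonist (≤1% DMSO); luminescence expressed relative to 10 nM NDP-MSH, EC50 at half-maximal signal. Alternatively, cAMP measured after 30 minutes with compound plus 500 μM IBMX by [3H]-cAMP competition binding.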

T1 sequence (P32245 whole entry, species assumed): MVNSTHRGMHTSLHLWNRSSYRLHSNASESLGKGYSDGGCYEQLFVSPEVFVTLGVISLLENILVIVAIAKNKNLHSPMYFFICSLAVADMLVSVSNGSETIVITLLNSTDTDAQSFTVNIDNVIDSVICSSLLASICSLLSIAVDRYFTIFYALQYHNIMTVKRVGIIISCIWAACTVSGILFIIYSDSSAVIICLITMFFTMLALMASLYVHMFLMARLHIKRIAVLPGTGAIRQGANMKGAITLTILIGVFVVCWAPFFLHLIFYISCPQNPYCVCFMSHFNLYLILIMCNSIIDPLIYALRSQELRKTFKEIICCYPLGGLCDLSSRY

EC50 [nM]	SMILES
10 to 100	CC(C)N1CCN(C(=O)[C@@H]2C[C@H](N(C(=O)[C@@H]3CCCO3)C3CCC(C)(C)CC3)CN2C(=O)[C@@H]2CN(C3CCOCC3)C[C@H]2c2ccc(F)cc2F)CC1 [Example 47, (2S)-N-{(3S,5S)-1-{[(3S,4R)-4-(2,4-difluorophenyl)-1-(tetrahydro-2H-pyran-4-yl)pyrrolidin-3-yl]carbonyl}-5-[(4-isopropylpiperazin-1-yl)carbonyl]pyrrolidin-3-yl}-N-(4,4-dimethylcyclohexyl)tetrahydrofuran-2-carboxamide]
10 to 100	CC(C)N1CCN(C(=O)[C@@H]2C[C@H](N(C(=O)[C@@H]3CCCO3)C3CCC(C)(C)CC3)CN2C(=O)[C@@H]2CN(C3CCSCC3)C[C@H]2c2ccc(F)cc2F)CC1 [Example 48, (2S)-N-{(3S,5S)-1-{[(3S,4R)-4-(2,4-difluorophenyl)-1-(tetrahydro-2H-thiopyran-4-yl)pyrrolidin-3-yl]carbonyl}-5-[(4-isopropylpiperazin-1-yl)carbonyl]pyrrolidin-3-yl}-N-(4,4-dimethylcyclohexyl)tetrahydrofuran-2-carboxamide]
0.1 to 10	CN1CCN(C(=O)[C@@H]2C[C@H](N(C(=O)C(C)(C)CO)C3CCC(C)(C)CC3)CN2C(=O)[C@@H]2CN(C3CCOCC3)C[C@H]2c2ccc(Cl)cc2)CC1 [Example 49, N-{(3S,5S)-1-{[(3S,4R)-4-(4-chlorophenyl)-1-(tetrahydro-2H-pyran-4-yl)pyrrolidin-3-yl]carbonyl}-5-[(4-methylpiperazin-1-yl)carbonyl]pyrrolidin-3-yl}-N-(4,4-dimethylcyclohexyl)-3-hydroxy-2,2-dimethylpropanamide]
0.1 to 10	CN1CCN(C(=O)[C@@H]2C[C@H](N(C(=O)C(C)(C)C)C3CCC(F)(F)CC3)CN2C(=O)[C@@H]2CN(C3CCOCC3)C[C@H]2c2ccc(Cl)cc2)CC1 [Example 50, N-{(3S,5S)-1-{[(3S,4R)-4-(4-chlorophenyl)-1-(tetrahydro-2H-pyran-4-yl)pyrrolidin-3-yl]carbonyl}-5-[(4-methylpiperazin-1-yl)carbonyl]pyrrolidin-3-yl}-N-(4,4-difluorocyclohexyl)-2,2-dimethylpropanamide]
10 to 100	CN1CCN(C(=O)[C@@H]2C[C@H](N(C(=O)[C@@H]3CCCO3)C3CCC(F)(F)CC3)CN2C(=O)[C@@H]2CN(C3CCOCC3)C[C@H]2c2ccc(Cl)cc2)CC1 [Example 51, (2S)-N-{(3S,5S)-1-{[(3S,4R)-4-(4-chlorophenyl)-1-(tetrahydro-2H-pyran-4-yl)pyrrolidin-3-yl]carbonyl}-5-[(4-methylpiperazin-1-yl)carbonyl]pyrrolidin-3-yl}-N-(4,4-difluorocyclohexyl)tetrahydrofuran-2-carboxamide]
0.1 to 10	CC(C)N1CCN(C(=O)[C@H]2C[C@H](N(C(=O)[C@@H]3CCCO3)C3CCC(C)(C)CC3)CN2C(=O)[C@@H]2CN(C3CCOCC3)C[C@H]2c2ccc(F)cc2F)CC1 [Example 52, (2S)-N-{(3S,5R)-1-{[(3S,4R)-4-(2,4-difluorophenyl)-1-(tetrahydro-2H-pyran-4-yl)pyrrolidin-3-yl]carbonyl}-5-[(4-isopropylpiperazin-1-yl)carbonyl]pyrrolidin-3-yl}-N-(4,4-dimethylcyclohexyl)tetrahydrofuran-2-carboxamide]
0.1 to 10	CN1CCN(C(=O)[C@@H]2C[C@H](N(C(=O)C(C)(C)C)[C@H]3CC[C@@H](C)CC3)CN2C(=O)[C@@H]2CN(C3CCOCC3)C[C@H]2c2ccc(F)cc2F)CC1 [Example 53, N-{(3S,5S)-1-{[(3S,4R)-4-(2,4-difluorophenyl)-1-(tetrahydro-2H-pyran-4-yl)pyrrolidin-3-yl]carbonyl}-5-[(4-methylpiperazin-1-yl)carbonyl]pyrrolidin-3-yl}-2,2-dimethyl-N-(cis-4-methylcyclohexyl)propanamide]
